Source: the supplement of paper PMC11451515

Key:
Settings in all cases: 48 h
NOMO1 [1] = experiment: cell viability relative to DMSO control; higher = less cytotoxic
Method in brief: (§1)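 Viability is a per-plate percentage relative to DMSO wells, with cell-free wells as background. CellTiter-Glo One luminescence was read after 48 h at 37°C on 1536-well plates (5 μl) of NOMO1 or SEM (500 cells/well) or P12-Ichikawa (1000 cells/well) leukemia cells. The cells had been adapted for at least four passages in each medium and pin-dosed with library compounds in DMSO from 47 μM to 0.79 nM in 11 threefold steps.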

P12-Ichikawa [2] = experiment: as above
Method in brief: as §1

SEM cells [3] = experiment: as above
Method in brief: as §1

NOMO1 [4] = experiment: AUC of viability dose-response curve (% viability x log10 dose units); higher = less sensitive
Method in brief: (§2)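 Leukemia cells adapted to each medium were seeded in 1536-well plates (500 or 1000 cells/well). They were dosed with library compounds in DMSO at 11 threefold doses, 47 μM to 0.79 nM, for 48 h at 37°C. CellTiter-Glo One luminescence was normalised per plate to DMSO and cell-free wells. Area under the curve was integrated by trapezoidal rule over log10 doses on a four-parameter log-logistic fit; curves exceeding full viability were scaled and curves failing quality control removed.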

P12-Ichikawa [5] = experiment: as above
Method in brief: as §2

SEM cells [6] = experiment: as above
Method in brief: as §2

CC(=O)N(C)C1(c2ccccc2)CCN(CCC[C@]2(c3ccc(Cl)c(Cl)c3)CCCN(C(=O)c3ccccc3)C2)CC1
cell viability [%]
Settings | NOMO1 [1] | P12-Ichikawa [2] | SEM cells [3]
HPLM + 10% dialyzed FBS, 0.000781 µM | 116 | 115 | 120
HPLM + 10% dialyzed FBS, 0.00234 µM | 124 | 114 | 129
HPLM + 10% dialyzed FBS, 0.00702 µM | 128 | 115 | 124
HPLM + 10% dialyzed FBS, 0.0211 µM | 117 | 116 | 116
HPLM + 10% dialyzed FBS, 0.0632 µM | 123 | 114 | 123
HPLM + 10% dialyzed FBS, 0.19 µM | 104 | 108 | 120
HPLM + 10% dialyzed FBS, 0.569 µM | 58.4 | 91.1 | 74.1
HPLM + 10% dialyzed FBS, 1.71 µM | 25.1 | 54.9 | 14.2
HPLM + 10% dialyzed FBS, 5.12 µM | 9.73 | 45.1 | 11.2
HPLM + 10% dialyzed FBS, 15.4 µM | 10 | 33.9 | 9.08
HPLM + 10% dialyzed FBS, 46.1 µM | 4.11 | 7.84 | 7.03
RPMI 5 mM glucose + 10% FBS, 0.000781 µM | 106 | 110 | 109
RPMI 5 mM glucose + 10% FBS, 0.00234 µM | 109 | 110 | 130
RPMI 5 mM glucose + 10% FBS, 0.00702 µM | 122 | 110 | 103
RPMI 5 mM glucose + 10% FBS, 0.0211 µM | 126 | 107 | 126
RPMI 5 mM glucose + 10% FBS, 0.0632 µM | 128 | 114 | 123
RPMI 5 mM glucose + 10% FBS, 0.19 µM | 122 | 119 | 123
RPMI 5 mM glucose + 10% FBS, 0.569 µM | 111 | 111 | 78.7
RPMI 5 mM glucose + 10% FBS, 1.71 µM | 65.5 | 88.4 | 9.2
RPMI 5 mM glucose + 10% FBS, 5.12 µM | 15.3 | 55.8 | 6.49
RPMI 5 mM glucose + 10% FBS, 15.4 µM | 8.99 | 41.1 | 6.83
RPMI 5 mM glucose + 10% FBS, 46.1 µM | 5.76 | 12.1 | 4.78
RPMI 5 mM glucose + 10% dialyzed FBS, 0.000781 µM | 110 | 110 | 109
RPMI 5 mM glucose + 10% dialyzed FBS, 0.00234 µM | 112 | 107 | 145
RPMI 5 mM glucose + 10% dialyzed FBS, 0.00702 µM | 114 | 110 | 119
RPMI 5 mM glucose + 10% dialyzed FBS, 0.0211 µM | 115 | 112 | 128
RPMI 5 mM glucose + 10% dialyzed FBS, 0.0632 µM | 106 | 117 | 139
RPMI 5 mM glucose + 10% dialyzed FBS, 0.19 µM | 115 | 108 | 128
RPMI 5 mM glucose + 10% dialyzed FBS, 0.569 µM | 100 | 99.8 | 133
RPMI 5 mM glucose + 10% dialyzed FBS, 1.71 µM | 60.3 | 79.9 | 18.4
RPMI 5 mM glucose + 10% dialyzed FBS, 5.12 µM | 16.9 | 38.9 | 12
RPMI 5 mM glucose + 10% dialyzed FBS, 15.4 µM | 10.3 | 18.5 | 10.6
RPMI 5 mM glucose + 10% dialyzed FBS, 46.1 µM | 5.1 | 11.2 | 6.46

AUC of viability dose-response curve
Settings | NOMO1 [4] | P12-Ichikawa [5] | SEM cells [6]
HPLM + 10% dialyzed FBS | 294 | 346 | 305
RPMI 5 mM glucose + 10% FBS | 344 | 387 | 303
RPMI 5 mM glucose + 10% dialyzed FBS | 343 | 366 | 326

C[C@]12CC[C@H]3[C@@H](CC(=C)\C4=C\C(=O)\C=C/[C@]34C)[C@@H]1CCC2=O
cell viability [%]
Settings | NOMO1 [1] | P12-Ichikawa [2] | SEM cells [3]
HPLM + 10% dialyzed FBS, 0.000781 µM | 111 | 105 | 89.7
HPLM + 10% dialyzed FBS, 0.00234 µM | 105 | 107 | 92.6
HPLM + 10% dialyzed FBS, 0.00702 µM | 92.2 | 105 | 96.3
HPLM + 10% dialyzed FBS, 0.0211 µM | 107 | 107 | 105
HPLM + 10% dialyzed FBS, 0.0632 µM | 105 | 107 | 107
HPLM + 10% dialyzed FBS, 0.19 µM | 99.1 | 101 | 92.8
HPLM + 10% dialyzed FBS, 0.569 µM | 99.1 | 104 | 94.4
HPLM + 10% dialyzed FBS, 1.71 µM | 113 | 103 | 90.7
HPLM + 10% dialyzed FBS, 5.12 µM | 119 | 98 | 97.8
HPLM + 10% dialyzed FBS, 15.4 µM | 99.6 | 99 | 34.9
HPLM + 10% dialyzed FBS, 46.1 µM | 52.8 | 79.9 | 64.8
RPMI 5 mM glucose + 10% FBS, 0.000781 µM | 99.5 | 96.3 | 111
RPMI 5 mM glucose + 10% FBS, 0.00234 µM | 89.3 | 110 | 90.8
RPMI 5 mM glucose + 10% FBS, 0.00702 µM | 95.8 | 105 | 89.2
RPMI 5 mM glucose + 10% FBS, 0.0211 µM | 90.4 | 102 | 96.9
RPMI 5 mM glucose + 10% FBS, 0.0632 µM | 92.6 | 108 | 98
RPMI 5 mM glucose + 10% FBS, 0.19 µM | 92.1 | 96.2 | 95.3
RPMI 5 mM glucose + 10% FBS, 0.569 µM | 97.8 | 102 | 104
RPMI 5 mM glucose + 10% FBS, 1.71 µM | 90.6 | 107 | 106
RPMI 5 mM glucose + 10% FBS, 5.12 µM | 81.6 | 101 | 114
RPMI 5 mM glucose + 10% FBS, 15.4 µM | 80.3 | 98 | 36.5
RPMI 5 mM glucose + 10% FBS, 46.1 µM | 74.9 | 63.7 | 54.6
RPMI 5 mM glucose + 10% dialyzed FBS, 0.000781 µM | 75.8 | 96.7 | 98.1
RPMI 5 mM glucose + 10% dialyzed FBS, 0.00234 µM | 100 | 107 | 86.9
RPMI 5 mM glucose + 10% dialyzed FBS, 0.00702 µM | 99.7 | 99.6 | 96.4
RPMI 5 mM glucose + 10% dialyzed FBS, 0.0211 µM | 108 | 101 | 110
RPMI 5 mM glucose + 10% dialyzed FBS, 0.0632 µM | 98.3 | 99.1 | 103
RPMI 5 mM glucose + 10% dialyzed FBS, 0.19 µM | 91.6 | 95.2 | 101
RPMI 5 mM glucose + 10% dialyzed FBS, 0.569 µM | 94.4 | 88.5 | 115
RPMI 5 mM glucose + 10% dialyzed FBS, 1.71 µM | 102 | 103 | 111
RPMI 5 mM glucose + 10% dialyzed FBS, 5.12 µM | 92.5 | 102 | 115
RPMI 5 mM glucose + 10% dialyzed FBS, 15.4 µM | 86.4 | 94.5 | 33.2
RPMI 5 mM glucose + 10% dialyzed FBS, 46.1 µM | 61.8 | 57.4 | 59.9

AUC of viability dose-response curve
Settings | NOMO1 [4] | P12-Ichikawa [5] | SEM cells [6]
HPLM + 10% dialyzed FBS | 463 | 466 | 426
RPMI 5 mM glucose + 10% FBS | 429 | 466 | 438
RPMI 5 mM glucose + 10% dialyzed FBS | 444 | 461 | 437
